A short description of data set [1]: Therapeutic index, ratio of CC50 for human HuH7 cells to EC50 for HCV genotype 1b infected in human Huh7 cells. As to conditions: HuH7 cells.
The target in data set [2] is Histone deacetylase 1 (Homo sapiens) (UniProt Q13547). Kind of data set: Inhibition of full length C-terminal GST-tagged human HDAC1 expressed in baculovirus expression system assessed as inhibition of fluorophore 7-amino-4-methylcoumarin release by fluorescence assay.
The target of data set [3] is Histone deacetylase 2 (Homo sapiens) (UniProt Q92769). In words: Inhibition of full length C-terminal His-tagged human HDAC2 expressed in baculovirus expression system assessed as inhibition of fluorophore 7-amino-4-methylcoumarin release by fluorescence assay.
Data set [4] deals with Histone deacetylase 3 (Homo sapiens) (UniProt O15379). In words: Inhibition of full length C-terminal His-tagged human HDAC3 expressed in baculovirus expression system assessed as inhibition of fluorophore 7-amino-4-methylcoumarin release by fluorescence assay.
Data set [5] has as its target Histone deacetylase 4 (Homo sapiens) (UniProt P56524). In words: Inhibition of N-terminal GST-tagged human HDAC4 (amino acids 627 to 1085) expressed in baculovirus expression system assessed as inhibition of fluorophore 7-amino-4-methylcoumarin release by fluorescence assay.
In data set [6] the target is Histone deacetylase 5 (Homo sapiens) (UniProt Q9UQL6). Kind of data set: Inhibition of full length N-terminal GST-tagged human HDAC5 expressed in baculovirus expression system assessed as inhibition of fluorophore 7-amino-4-methylcoumarin release by fluorescence assay.
Data set [7] concerns the target T1, Histone deacetylase 7 (Homo sapiens) (UniProt Q8WUI4).
T1 sequence (whole entry): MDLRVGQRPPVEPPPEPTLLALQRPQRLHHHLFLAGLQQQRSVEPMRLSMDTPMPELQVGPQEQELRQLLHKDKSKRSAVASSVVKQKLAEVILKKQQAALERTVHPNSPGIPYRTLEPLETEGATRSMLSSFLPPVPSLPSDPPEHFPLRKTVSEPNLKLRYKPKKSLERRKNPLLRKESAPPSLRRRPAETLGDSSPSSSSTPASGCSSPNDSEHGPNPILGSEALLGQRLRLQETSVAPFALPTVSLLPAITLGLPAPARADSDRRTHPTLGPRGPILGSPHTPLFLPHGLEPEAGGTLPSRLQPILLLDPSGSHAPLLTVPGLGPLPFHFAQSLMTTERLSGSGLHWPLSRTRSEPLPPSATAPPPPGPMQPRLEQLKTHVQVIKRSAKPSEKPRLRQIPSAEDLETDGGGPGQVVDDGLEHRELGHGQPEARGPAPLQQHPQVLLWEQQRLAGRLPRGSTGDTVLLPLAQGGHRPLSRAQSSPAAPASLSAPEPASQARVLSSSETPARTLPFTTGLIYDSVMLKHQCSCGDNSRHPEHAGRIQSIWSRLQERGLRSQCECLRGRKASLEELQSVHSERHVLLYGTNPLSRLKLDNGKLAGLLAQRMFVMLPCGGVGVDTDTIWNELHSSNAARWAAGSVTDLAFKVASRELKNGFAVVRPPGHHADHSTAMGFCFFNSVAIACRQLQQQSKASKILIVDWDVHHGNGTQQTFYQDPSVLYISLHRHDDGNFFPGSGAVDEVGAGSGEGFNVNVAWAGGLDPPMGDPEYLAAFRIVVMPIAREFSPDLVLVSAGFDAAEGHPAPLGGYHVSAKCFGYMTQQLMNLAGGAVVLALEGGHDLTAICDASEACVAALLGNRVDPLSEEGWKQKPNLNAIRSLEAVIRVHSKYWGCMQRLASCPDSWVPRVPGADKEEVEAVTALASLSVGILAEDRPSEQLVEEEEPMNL
In words: Inhibition of full length N-terminal GST-tagged human HDAC7 (amino acids 518 to end) expressed in baculovirus expression system assessed as inhibition of fluorophore 7-amino-4-methylcoumarin release by fluorescence assay.

The target in data set [8] is T2, Histone deacetylase 8 (Homo sapiens) (UniProt Q9BY41).
T2 sequence (whole entry): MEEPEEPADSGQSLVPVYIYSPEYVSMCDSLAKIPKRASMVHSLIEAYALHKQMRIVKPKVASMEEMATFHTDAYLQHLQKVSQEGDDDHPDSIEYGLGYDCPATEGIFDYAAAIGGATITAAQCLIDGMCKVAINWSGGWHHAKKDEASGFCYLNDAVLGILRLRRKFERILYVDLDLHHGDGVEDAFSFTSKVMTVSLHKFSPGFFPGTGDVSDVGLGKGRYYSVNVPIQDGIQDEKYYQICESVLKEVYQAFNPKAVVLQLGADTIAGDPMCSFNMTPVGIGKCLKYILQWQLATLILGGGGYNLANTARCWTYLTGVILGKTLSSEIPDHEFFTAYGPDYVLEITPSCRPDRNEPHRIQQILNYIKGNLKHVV
In words: Inhibition of full length human HDAC8 expressed in Escherichia coli assessed as inhibition of fluorophore 7-amino-4-methylcoumarin release by fluorescence assay.

In data set [9] the target is T3, Polyamine deacetylase HDAC10 (Homo sapiens) (UniProt Q969S8).
T3 sequence (whole entry): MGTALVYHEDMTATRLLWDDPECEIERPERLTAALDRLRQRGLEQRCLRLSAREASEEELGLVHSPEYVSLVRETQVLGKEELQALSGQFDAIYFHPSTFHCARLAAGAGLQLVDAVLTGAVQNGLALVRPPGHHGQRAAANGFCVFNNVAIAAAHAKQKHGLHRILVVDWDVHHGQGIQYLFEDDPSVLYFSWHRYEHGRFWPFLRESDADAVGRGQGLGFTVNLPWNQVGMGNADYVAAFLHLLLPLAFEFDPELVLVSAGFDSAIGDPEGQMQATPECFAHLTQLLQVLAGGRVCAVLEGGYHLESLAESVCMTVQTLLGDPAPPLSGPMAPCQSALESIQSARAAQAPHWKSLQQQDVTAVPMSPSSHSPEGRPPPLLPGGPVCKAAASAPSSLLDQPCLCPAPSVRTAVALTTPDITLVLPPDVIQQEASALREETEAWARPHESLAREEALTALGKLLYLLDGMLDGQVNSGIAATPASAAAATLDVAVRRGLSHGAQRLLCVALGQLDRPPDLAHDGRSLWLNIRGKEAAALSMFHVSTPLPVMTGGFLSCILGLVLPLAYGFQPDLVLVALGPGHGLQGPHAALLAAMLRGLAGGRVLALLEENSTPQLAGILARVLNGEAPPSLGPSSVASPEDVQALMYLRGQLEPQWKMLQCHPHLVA
Kind of data set: Inhibition of full length N-terminal GST-tagged human HDAC10 (amino acids 1 to 631 ) expressed in baculovirus expression system assessed as inhibition of fluorophore 7-amino-4-methylcoumarin release by fluorescence assay.

In data set [10] the target is Macrophage metalloelastase (Homo sapiens) (UniProt P39900). Kind of data set: Inhibition of human recombinant MMP12 catalytic domain (99 to 271 aa) expressed in Escherichia coli.
Data set [11] deals with Hepacivirus hominis. In words: Inhibition of HCV NS5B RNA dependent RNA polymerase.

Active and inactive are the calls of the source. The rule behind the calls is not given here.

Sequence of Histone deacetylase 5 (Homo sapiens) (Q9UQL6 whole entry): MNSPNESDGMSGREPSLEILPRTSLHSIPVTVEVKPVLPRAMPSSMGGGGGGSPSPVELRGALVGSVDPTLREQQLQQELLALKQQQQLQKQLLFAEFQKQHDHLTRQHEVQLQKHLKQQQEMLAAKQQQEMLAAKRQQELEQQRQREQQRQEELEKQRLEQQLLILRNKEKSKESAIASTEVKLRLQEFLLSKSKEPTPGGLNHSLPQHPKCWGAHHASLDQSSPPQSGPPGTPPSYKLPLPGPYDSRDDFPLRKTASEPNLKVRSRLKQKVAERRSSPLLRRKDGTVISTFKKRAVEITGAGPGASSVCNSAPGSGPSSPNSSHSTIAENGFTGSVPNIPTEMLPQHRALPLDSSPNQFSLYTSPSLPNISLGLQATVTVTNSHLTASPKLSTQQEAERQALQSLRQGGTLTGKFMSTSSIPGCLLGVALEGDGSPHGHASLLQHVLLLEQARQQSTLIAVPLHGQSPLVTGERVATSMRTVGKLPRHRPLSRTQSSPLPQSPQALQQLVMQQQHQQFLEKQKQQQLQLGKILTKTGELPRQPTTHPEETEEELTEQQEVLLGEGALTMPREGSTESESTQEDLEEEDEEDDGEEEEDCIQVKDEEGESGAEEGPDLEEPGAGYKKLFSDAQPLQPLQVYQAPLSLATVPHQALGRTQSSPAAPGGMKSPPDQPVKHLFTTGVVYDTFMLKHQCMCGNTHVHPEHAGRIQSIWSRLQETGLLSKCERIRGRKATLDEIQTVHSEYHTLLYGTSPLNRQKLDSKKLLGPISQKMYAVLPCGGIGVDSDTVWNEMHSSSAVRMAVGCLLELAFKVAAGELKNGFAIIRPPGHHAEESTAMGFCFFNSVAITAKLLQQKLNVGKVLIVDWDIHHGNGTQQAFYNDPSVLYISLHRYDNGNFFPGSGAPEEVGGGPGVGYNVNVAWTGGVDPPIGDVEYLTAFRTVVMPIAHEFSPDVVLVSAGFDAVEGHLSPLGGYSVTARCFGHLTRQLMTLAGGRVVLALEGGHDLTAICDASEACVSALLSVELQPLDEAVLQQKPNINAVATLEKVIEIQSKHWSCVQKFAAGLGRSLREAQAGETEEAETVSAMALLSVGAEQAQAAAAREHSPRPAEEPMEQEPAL
Sequence of Histone deacetylase 3 (Homo sapiens) (O15379 whole entry, the tested form may be a part): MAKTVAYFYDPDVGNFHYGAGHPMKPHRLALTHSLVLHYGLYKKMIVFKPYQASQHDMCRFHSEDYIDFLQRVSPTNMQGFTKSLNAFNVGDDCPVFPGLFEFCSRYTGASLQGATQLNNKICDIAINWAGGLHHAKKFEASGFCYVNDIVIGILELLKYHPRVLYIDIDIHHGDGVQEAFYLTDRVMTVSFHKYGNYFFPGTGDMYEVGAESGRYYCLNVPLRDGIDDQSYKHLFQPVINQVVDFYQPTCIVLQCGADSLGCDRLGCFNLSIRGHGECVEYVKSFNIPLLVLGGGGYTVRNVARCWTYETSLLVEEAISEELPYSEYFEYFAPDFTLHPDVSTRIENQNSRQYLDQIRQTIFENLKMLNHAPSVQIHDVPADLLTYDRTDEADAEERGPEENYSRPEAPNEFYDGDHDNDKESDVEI
Sequence of Macrophage metalloelastase (Homo sapiens) (P39900 106-470 limits assumed): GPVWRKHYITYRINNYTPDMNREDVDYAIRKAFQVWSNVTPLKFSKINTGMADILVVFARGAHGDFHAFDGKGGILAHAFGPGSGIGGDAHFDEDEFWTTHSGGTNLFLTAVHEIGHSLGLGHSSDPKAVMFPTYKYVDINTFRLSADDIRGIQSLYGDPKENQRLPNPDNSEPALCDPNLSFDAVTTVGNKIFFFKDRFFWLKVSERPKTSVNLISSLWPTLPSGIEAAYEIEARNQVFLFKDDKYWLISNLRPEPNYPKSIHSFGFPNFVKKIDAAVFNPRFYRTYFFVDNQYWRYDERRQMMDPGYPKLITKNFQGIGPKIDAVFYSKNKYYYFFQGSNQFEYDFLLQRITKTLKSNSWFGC
Sequence of Histone deacetylase 2 (Homo sapiens) (Q92769 whole entry): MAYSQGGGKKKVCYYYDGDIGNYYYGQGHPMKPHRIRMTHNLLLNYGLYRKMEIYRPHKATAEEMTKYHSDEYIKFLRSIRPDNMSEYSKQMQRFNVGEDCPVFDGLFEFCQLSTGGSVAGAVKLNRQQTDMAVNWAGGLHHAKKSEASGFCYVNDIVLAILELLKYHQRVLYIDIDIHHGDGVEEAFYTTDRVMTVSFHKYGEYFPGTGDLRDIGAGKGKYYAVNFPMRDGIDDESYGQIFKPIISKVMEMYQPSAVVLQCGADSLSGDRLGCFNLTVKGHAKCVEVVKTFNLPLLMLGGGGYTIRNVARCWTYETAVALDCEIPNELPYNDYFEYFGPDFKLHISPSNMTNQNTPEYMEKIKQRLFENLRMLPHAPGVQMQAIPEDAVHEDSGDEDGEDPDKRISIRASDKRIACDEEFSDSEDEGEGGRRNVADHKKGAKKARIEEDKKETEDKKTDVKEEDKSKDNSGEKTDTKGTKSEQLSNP
Sequence of Histone deacetylase 4 (Homo sapiens) (P56524 whole entry, the tested form may be a part): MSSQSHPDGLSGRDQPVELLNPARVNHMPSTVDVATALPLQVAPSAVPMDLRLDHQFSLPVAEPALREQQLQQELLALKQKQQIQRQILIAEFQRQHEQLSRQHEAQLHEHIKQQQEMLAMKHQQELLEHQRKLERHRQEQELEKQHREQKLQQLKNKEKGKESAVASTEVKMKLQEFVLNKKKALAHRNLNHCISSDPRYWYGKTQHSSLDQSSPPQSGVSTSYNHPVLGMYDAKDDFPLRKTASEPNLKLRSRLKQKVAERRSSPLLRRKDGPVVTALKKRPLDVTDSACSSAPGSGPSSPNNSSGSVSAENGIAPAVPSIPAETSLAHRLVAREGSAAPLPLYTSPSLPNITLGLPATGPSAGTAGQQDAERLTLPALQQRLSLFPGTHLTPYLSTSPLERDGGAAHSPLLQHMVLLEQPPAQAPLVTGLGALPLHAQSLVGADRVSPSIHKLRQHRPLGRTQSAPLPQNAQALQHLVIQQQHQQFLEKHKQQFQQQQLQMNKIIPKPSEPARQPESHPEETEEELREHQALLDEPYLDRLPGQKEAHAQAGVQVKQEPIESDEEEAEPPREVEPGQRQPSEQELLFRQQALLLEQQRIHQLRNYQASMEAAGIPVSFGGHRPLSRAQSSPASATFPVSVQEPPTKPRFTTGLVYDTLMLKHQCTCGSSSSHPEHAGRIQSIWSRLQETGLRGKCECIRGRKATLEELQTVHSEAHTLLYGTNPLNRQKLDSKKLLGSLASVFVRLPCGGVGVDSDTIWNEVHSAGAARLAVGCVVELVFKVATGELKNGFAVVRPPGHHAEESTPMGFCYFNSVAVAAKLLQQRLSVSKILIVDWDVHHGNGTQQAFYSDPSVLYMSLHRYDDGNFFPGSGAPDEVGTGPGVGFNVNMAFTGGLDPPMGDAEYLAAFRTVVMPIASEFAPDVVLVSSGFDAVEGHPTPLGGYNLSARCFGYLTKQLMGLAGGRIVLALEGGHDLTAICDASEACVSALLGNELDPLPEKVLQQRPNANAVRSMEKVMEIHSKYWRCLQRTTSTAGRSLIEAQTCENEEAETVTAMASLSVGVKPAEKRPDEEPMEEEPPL
Sequence of Histone deacetylase 1 (Homo sapiens) (Q13547 whole entry): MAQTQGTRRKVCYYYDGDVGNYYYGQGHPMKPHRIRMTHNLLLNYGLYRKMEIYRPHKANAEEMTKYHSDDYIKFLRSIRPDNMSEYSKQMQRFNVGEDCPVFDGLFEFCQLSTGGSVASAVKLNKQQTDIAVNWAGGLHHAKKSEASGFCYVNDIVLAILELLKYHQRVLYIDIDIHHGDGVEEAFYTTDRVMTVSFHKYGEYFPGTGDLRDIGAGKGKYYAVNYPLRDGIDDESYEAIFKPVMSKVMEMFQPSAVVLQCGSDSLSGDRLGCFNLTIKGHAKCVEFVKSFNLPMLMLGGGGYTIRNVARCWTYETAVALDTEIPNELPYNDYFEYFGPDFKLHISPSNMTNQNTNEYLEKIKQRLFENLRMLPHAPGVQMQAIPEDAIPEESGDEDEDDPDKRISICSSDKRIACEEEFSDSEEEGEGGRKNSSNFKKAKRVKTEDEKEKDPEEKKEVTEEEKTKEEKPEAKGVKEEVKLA

With `O=C(NO)c1sc2ccccc2c1S(=O)(=O)c1ccccc1`, in [1], the selectivity ratio amounted to 93. Further, the inhibition result in data set [2], in data set [3], in data set [4], in [5], in data set [6] and in data set [7] was “inactive” throughout. Also, the inhibition entry in [9] and in data set [11] was “inactive” each time. Further, the inhibition result in data set [8] and in data set [10] was “Active” each time.

The values are drawn from ChEMBL document CHEMBL3392986, “Hydroxamic acids block replication of hepatitis C virus” (J Med Chem, 2015).
